Measurements taken from US9637516B2, “Betulinic acid proline derivatives as HIV inhibitors” (HETERO RESEARCH FOUNDATION, priority 2012, dated 2017).

Assays:
[1] = Single dose oral pharmacokinetic study; format: in vivo, mice; conditions: mouse, plasma; Mice oral PK @30 mg/kg (Table 3)
Experimental: The test item was administered through oral route to animals (rat/mice) at 30 mg/kg dose in a suitable vehicle at 10 ml/kg dose volume. Blood samples (˜50 uL at each time point) were collected from retro-orbital plexus using K3 EDTA as anticoagulant in eppendorf tubes at defined time intervals under light ether anesthesia. The samples were centrifuged at 3500×g to separate plasma and stored at −80° C. until analysis.
Sample analysis: Test samples were analyzed using LC-MS-MS after developing fit-for-purpose method for each of test compound.

HIV-1 strain 92HT599 = assay: Antiviral activity: p24 estimation in MT2 cells infected with HIV-1 strain 92HT599; format: cell-based; conditions: for inhibition at 0.1 µM: Human immunodeficiency virus 1, 100 nM; for inhibition at 0.1 µM / inhibition at 1 µM: HIV-1 92HT599, p24, ~96 hours; for inhibition at 1 µM: Human immunodeficiency virus 1, 1000 nM; for IC50: Human immunodeficiency virus 1, HIV-1 92HT599, p24
Experimental: MT2 cells were infected with HIV-1 strain 92HT599 (10 TCID 50/30000 cells). The infected cells were plated at the concentration of ˜30 000 cells per well in 96 well plate. Test compound was added to the micro plate in defined format with the final concentration of DMSO (vehicle) is not more than 1%. Incubation was carried out in CO2 incubator for ˜96 hours for viral infection. At the end of incubation period an aliquot from each well was taken for p24 estimation. The quantitation of p24 is an index for antiviral activity of the compound. Percent inhibition was calculated with reference to control values (vehicle controls). p-24 estimation was carried out using Advance biosciences kit as per the procedure detailed by supplier.

MT2 cells = assay: in vitro; format: cell-based; conditions: human, 1 µM
Experimental: (§1) For cyto-toxicity assay the same amount of MT2 cells as in antiviral assay without virus was added to the 96 well plates. The cyto-toxicity was measured using MTT reagent in parallel with p24 estimation. The percent viability is calculated in comparison with vehicle control.

in vitro = format: cell-based; conditions: human, Cytotoxicity % viability
Experimental: as §1

SMILES	AUC(0-t) [1]	Cmax [1]	Tmax [1]	inhibition at 0.1 µM (HIV-1 strain 92HT599)	inhibition at 1 µM (HIV-1 strain 92HT599)	IC50 (HIV-1 strain 92HT599)	Cytotoxicity % viability (MT2 cells)	viability at 1 µM (in vitro)
C=C(C)[C@@H]1CC[C@]2(C(=O)N3CCC[C@H]3c3ncc(-c4cccnc4)[nH]3)CC[C@]3(C)[C@H](CC[C@@H]4[C@@]5(C)CC[C@H](OC(=O)CC(C)(C)C(=O)O)C(C)(C)[C@@H]5CC[C@]43C)[C@@H]12 [Compound 10, 2,2-dimethyl-4-oxo-4-((1R,3aS,5aR,5bR,7aR,9S,11aR,11bR,13aR,13bR)-5a,5b,8,8,11a-pentamethyl-1-(prop-1-en-2-yl)-3a-((S)-2-(5-(pyridin-3-yl)-1H-imidazol-2-yl)pyrrolidine-1-carbonyl)icosahydro-1H-cyclopenta[a]chrysen-9-yloxy)butanoic acid]	40.5 µg·h/mL	5840 ng/mL	1.13 h	100%	100%	0.8 nM	81%	82%
CC(C)(CC(=O)O)CC(=O)O[C@H]1CC[C@]2(C)[C@H]3CC[C@@H]4[C@H]5[C@H](C6(C)CC6)CC[C@]5(C(=O)N5CCC[C@H]5c5ncc(-c6ccccc6)[nH]5)CC[C@@]4(C)[C@]3(C)CC[C@H]2C1(C)C [Compound 13, 3,3-dimethyl-5-oxo-5-((1R,3aS,5aR,5bR,7aR,9S,11aR,11bR,13aR,13bR)-5a,5b,8,8,11a-pentamethyl-1-(1-methylcyclopropyl)-3a-((S)-2-(5-phenyl-1H-imidazol-2-yl)pyrrolidine-1-carbonyl)icosahydro-1H-cyclopenta[a]chrysen-9-yloxy)pentanoic acid]	156 µg·h/mL	11100 ng/mL	4 h	78%	100%	–	72%	74%
C=C(C)[C@@H]1CC[C@]2(C(=O)N3CCC[C@H]3c3ncc(-c4ccccc4)[nH]3)CC[C@]3(C)[C@H](CC[C@@H]4[C@@]5(C)CC[C@H](OC(=O)CC(C)(C)C(=O)O)C(C)(C)[C@@H]5CC[C@]43C)[C@@H]12 [Compound 8, 2,2-dimethyl-4-oxo-4-((1R,3aS,5aR,5bR,7aR,9S,11aR,11bR,13aR,13bR)-5a,5b,8,8,11a-pentamethyl-3a-((S)-2-(5-phenyl-1H-imidazol-2-yl)pyrrolidine-1-carbonyl)-1-(prop-1-en-2-yl)icosahydro-1H-cyclopenta[a]chrysen-9-yloxy)butanoic acid]	143 µg·h/mL	11100 ng/mL	3.75 h	100%	100%	12.9 nM	88%	96%
C=C(C)[C@@H]1CC[C@]2(C(=O)N3CCC[C@H]3c3ncc(-c4cccnc4)[nH]3)CC[C@]3(C)[C@H](CC[C@@H]4[C@@]5(C)CC[C@H](OC(=O)CC(C)(C)CC(=O)O)C(C)(C)[C@@H]5CC[C@]43C)[C@@H]12 [Compound 11, 3,3-dimethyl-5-oxo-5-((1R,3aS,5aR,5bR,7aR,9S,11aR,11bR,13aR,13bR)-5a,5b,8,8,11a-pentamethyl-1-(prop-1-en-2-yl)-3a-((S)-2-(5-(pyridin-3-yl)-1H-imidazol-2-yl)pyrrolidine-1-carbonyl)icosahydro-1H-cyclopenta[a]chrysen-9-yloxy)pentanoic acid]	59.5 µg·h/mL	7620 ng/mL	1.25 h	99%	100%	1.51 nM	84%	80%
